Four compounds from US6756063B2, “Methods and compositions for the treatment of human and animal cancers” (Zoltan Laboratories, LLC, priority 2001, dated 2004) can be followed below.

In data set [1] the test system is ZR-75-1, human mammary gland (epithelial) ductal carcinoma, ascites, estrogen receptor positive. Description: Cell killing in ZR-75-1. The data set is classed as cell-based. The protocol:
(§1) To determine the effects of the present compositions, cells were grown in the indicated medium in either 12-well plates (to assess morphological changes and measure DNA synthesis); 6-well plates (for determination of apoptosis/necrosis); or 96-well plates (for determination of cellular proliferation by the MTT assay). All media contained 10% fetal bovine serum. In each experiment, the medium was replaced with fresh medium at 2 h. prior to treatment. Treatments were performed with sterile solutions of the compositions (made up either in the respective medium or water) for 1 min.-72 h. In some cases, treatments were done for 1 min., followed by incubation of washed cells for various time periods.
ZR-75-1, human mammary gland (epithelial) ductal carcinoma, ascites, estrogen receptor positive. Cells were cultured in modified RPMI 1640 medium with 2 mM L-glutamine, 10 mM Hepes, 1 mM sodium pyruvate, 4.5 g/L glucose, 1.5 g/L sodium bicarbonate, 0.2 I.U. bovine insulin/ml, and 10% fetal bovine serum; the medium was changed 6 h. prior to treatment. […] For DNA synthesis experiments, cells were incubated with [^3H]-thymidine (1 μCi/ml) between 120-130 mins. of treatment; for cell proliferation experiments, cells were trypsinized after treatment, re-plated, and viable cells counted 1 week later.

Data set [2] relates to MDA-MB-468, human mammary gland (epithelial) adenocarcinoma, estrogen receptor negative. Briefly: Cell killing in MDA-MB-468. Type of data set: cell-based. The conditions noted are these: in the above experiments. How it is done: as §1
Cells were cultured in Leibovitz's L-15 medium and 10% fetal bovine serum; the medium was changed 6 h. prior to treatment. […] For DNA synthesis experiments, cells were incubated with [^3H]-thymidine (1 μCi/ml) between 120-130 mins. of treatment; for cell proliferation experiments, cells were trypsinized after treatment, re-plated, and viable cells counted 1 week later.

Data set [3] deals with MCF-7, human breast carcinoma cells, estrogen receptor positive. Briefly: Cell killing in MCF-7. Type of data set: cell-based. The settings on record: in the above experiments. The protocol: as §1
Cells were cultured in Dulbecco's modified Eagle's medium containing 2 mM L-glutamine and 10% fetal calf serum; the medium was changed 2 h prior to treatments. […] For DNA synthesis experiments, cells were incubated with [^3H]-thymidine ([…]) between 120-130 min of treatment; for cell proliferation experiments, cells were trypsinized after treatment, re-plated, and viable cells counted 1 week later.

The subject of data set [4] is MDA-MB-231, human mammary gland (epithelial) adenocarcinoma, estrogen receptor negative. Description: Cell killing in MDA-MB-231. The data set is classed as cell-based. The conditions noted are these: for effectiveness of compositions comprising another dithiocarbonyl compared with PDC: same conditions as the PDC compositions. The protocol: as §1
Cells were cultured in Leibovitz's L-15 cell culture medium (Gibco) and 10% fetal bovine serum; the medium was changed 6 h. prior to treatment. […] For DNA synthesis experiments, cells were incubated with [^3H]-thymidine (1 μCi/ml) between 40-50 mins. of treatment; for cell proliferation experiments, cells were trypsinized after treatment, re-plated, and viable cells counted 1 week later.

Data set [5] has as its system T-47D, human mammary gland (epithelial) ductal carcinoma, estrogen receptor positive. Briefly: Cell killing in T-47D. Type of data set: cell-based. How it is done: as §1
Cells were cultured in modified RPMI 1640 cell culture medium (see Gibco Catalogue), with 2 mM L-glutamine, 10 mM Hepes, 1 mM sodium pyruvate, 4.5 g/L glucose, 1.5 g/L sodium bicarbonate, 0.2 I.U. bovine insulin/ml, and 10% fetal bovine serum; the medium was changed 6 h. prior to treatment. […] For DNA synthesis experiments, cells were incubated with [^3H]-thymidine (1 μCi/ml) between 120-130 mins. of treatment; for cell proliferation experiments, cells were trypsinized after treatment, replated, and viable cells counted 1 week later.

The test system of data set [6] is normal cells. Briefly: Proliferation of normal cells. Type of data set: cell-based.
The subject of data set [7] is T-47D, 2R-75-1, A431, MDA-MB-231, AN3Ca, CaOV3. Briefly: Proliferation of cancer cell lines. Type of data set: cell-based.
In data set [8] the test system is BDF1 adult female mice. Briefly: In vivo acute toxicological investigation, intraperitoneal. The conditions noted are these: alone, 0.5-2 mM in physiological saline, followed 21 days. The protocol: Specified pathogen free (SPF) hygienic category first generation hybrid BDF1 (C57B1 female×DBA/2 male) adult female mice weighing 22-23 g were used. The animals were kept in macrolon cages at 22-24 C (45-55% humidity), with a lighting regimen of 12/12 h light/dark.
The animals were followed for 21 days and evaluated based on survival and body weight. Seven animals were evaluated for each treatment.

[9] abbreviates: components at 50 μM PDC, 120 μM Zn, 100 μM EA, 3 mM DMETN, 2 h.

For the compound `S=C(S)OC1CC2CC1C1CCCC21` (stereo not shown) [Composition D609], the “effectiveness of compositions comprising another dithiocarbonyl compared with PDC” value in data set [1] (in the above experiments) is recorded as “as effective as those comprising PDC”; in data set [2] it was “as effective as those comprising PDC”; in data set [3], “as effective as those comprising PDC”; in data set [4], “as effective as compositions comprising PDC”; in data set [5] (in the above experiments), “as effective as those comprising PDC”.

`CCN(CC)C(=S)SSC(=S)N(CC)CC` [disulfuram, tetraethylthiuram disulfide]: the “effectiveness of compositions comprising another dithiocarbonyl compared with PDC” value in data set [4] was “as effective as compositions comprising PDC”.

On to `CN(C)CCO` [DMETN, dimethylethanolamine], for which, in data set [6], the “proliferation of normal cells” value is listed as “generally increasing proliferation”. The “proliferation of cancer cell lines” value in data set [7] was “inhibits proliferation”.

As for `C=C(CC)C(=O)c1ccc(OCC(=O)O)c(Cl)c1Cl` [EA, ethacrynic acid], the cells killed result is “about 100%” in data set [1] (setting [9]); “about 100%” in data set [4] (60 μM EA alone, after 3 h); “about 70%” in data set [4] (components at 25 μM PDC, 60 μM Zn, 60 μM EA, 3 mM DMETN, 40 min); “about 100%” in data set [5] (setting [9]). In data set [8], the “acute toxicity (survival and body weight)” value is “not toxic”.
